Experimental data as given in patent US9724352B2, “Pyrrolo[2,1-F[1,2,4]triazine compounds, preparation methods and applications thereof” (Shanghai Institute of Materia Medica, Chinese Academy of …, priority 2012, dated 2017).
pIC50: −log10 of the molar value.

Experiments:
[1] = tested on: human rhabdomyosarcoma Rh30 cells; test: Proliferation of Rh30 cells (sulforhodamine B); type: cell-based; conditions: Homo sapiens, Rh30, 72 h; read-out: IC50 against proliferation of Rh30 cells
Procedure: Rh30 cells were seeded in a 96-well plate at 3000 cells/well. After the cells adhered, tested compounds at concentration of 10, 3, 1, 0.3, or 0.1 μM were added, and incubated for 72 h. The culture media were discarded and cells were fixed with trichloroacetic acid. After washed with distilled water for five times and dried, sulfonylrhodamine B was added. After washed with 1% glacial acetic acid for five times and dried, trihydroxymethylaminomethane buffer was added. OD value was measured by using a microplate reader at a wavelength of 560 nm.

PI3Kα = PI3Kα (Homo sapiens (Human), UniProt P42336); test: Inhibition on PI3K kinase activity (Kinase-Glo Plus luminescent assay); type: biochemical; conditions: 2 μM ATP, 1 hour at room temperature
Chain of PI3Kα (P42336 whole entry): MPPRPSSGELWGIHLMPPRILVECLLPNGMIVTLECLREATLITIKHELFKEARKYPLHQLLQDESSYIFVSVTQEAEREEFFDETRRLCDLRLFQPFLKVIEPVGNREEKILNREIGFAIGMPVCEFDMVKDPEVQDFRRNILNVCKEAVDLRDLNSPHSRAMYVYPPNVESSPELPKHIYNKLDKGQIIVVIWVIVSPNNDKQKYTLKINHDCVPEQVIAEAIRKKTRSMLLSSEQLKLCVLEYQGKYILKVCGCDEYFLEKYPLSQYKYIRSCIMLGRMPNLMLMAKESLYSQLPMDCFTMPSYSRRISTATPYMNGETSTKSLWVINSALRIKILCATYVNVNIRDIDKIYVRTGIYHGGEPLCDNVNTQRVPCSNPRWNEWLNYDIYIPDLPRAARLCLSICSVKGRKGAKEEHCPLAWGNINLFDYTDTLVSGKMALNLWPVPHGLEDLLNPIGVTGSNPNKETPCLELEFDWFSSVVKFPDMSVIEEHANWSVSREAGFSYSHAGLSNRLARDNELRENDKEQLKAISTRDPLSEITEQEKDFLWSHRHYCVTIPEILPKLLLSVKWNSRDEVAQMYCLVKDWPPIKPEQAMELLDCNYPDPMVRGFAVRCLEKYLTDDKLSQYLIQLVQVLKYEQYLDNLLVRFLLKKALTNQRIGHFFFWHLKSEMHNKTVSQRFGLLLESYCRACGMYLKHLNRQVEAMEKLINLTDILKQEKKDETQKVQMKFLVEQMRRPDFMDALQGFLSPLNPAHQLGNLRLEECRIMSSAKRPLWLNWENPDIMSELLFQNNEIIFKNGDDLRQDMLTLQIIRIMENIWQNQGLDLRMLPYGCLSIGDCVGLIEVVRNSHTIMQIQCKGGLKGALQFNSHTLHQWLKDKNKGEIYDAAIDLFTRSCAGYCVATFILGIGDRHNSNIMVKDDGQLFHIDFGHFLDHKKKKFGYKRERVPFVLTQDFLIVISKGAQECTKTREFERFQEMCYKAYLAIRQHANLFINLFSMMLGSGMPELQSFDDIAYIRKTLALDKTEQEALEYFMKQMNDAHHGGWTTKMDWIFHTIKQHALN
Chain of PI3Kα (P27986 whole entry partner): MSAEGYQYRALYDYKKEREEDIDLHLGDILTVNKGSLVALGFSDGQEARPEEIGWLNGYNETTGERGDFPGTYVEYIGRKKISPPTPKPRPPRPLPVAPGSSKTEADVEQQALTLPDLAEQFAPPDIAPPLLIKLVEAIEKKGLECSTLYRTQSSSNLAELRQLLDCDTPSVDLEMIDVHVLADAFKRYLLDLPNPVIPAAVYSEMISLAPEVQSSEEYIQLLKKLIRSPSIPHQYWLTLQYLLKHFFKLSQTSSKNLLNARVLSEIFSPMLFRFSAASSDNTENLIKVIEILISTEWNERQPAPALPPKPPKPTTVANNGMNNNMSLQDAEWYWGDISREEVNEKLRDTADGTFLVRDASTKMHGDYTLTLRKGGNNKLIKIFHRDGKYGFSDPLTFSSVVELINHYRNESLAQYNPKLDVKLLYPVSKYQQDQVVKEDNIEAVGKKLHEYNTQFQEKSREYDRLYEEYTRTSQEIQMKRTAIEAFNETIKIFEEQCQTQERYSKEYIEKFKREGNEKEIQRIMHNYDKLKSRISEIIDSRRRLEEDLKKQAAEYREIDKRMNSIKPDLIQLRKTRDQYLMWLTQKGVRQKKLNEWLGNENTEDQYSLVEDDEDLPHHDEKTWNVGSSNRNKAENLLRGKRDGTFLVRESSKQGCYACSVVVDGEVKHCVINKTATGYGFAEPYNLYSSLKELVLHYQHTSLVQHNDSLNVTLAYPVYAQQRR
Procedure: The activity of purified kinase was detected with Kinase-Glo® Plus kinase luminescent assay by measuring the amount of the remaining […] in the solution after the kinase reaction was completed. […] After reaction was performed for 1 hour at room temperature, 10 μL of Kinase Glo-Plus mixture was added and incubated for 1 hour to quench the reaction.

[2] = tested on: colorectal cancer cells C-LOVO; test: Proliferation of human cancer cell panel; type: cell-based; conditions: read-out: inhibitory activity on proliferation
Excerpt: (§1) I-30 and I-33 were selected to test their activity on the proliferation of human cancer cells originated from different tissue types.

B-MCF-7 = test: Proliferation of human cancer cell panel; type: cell-based; conditions: read-out: inhibitory activity on proliferation
Excerpt: as §1

[3] = tested on: colon cancer cells C-HCT-116; test: Proliferation of human cancer cell panel; type: cell-based; conditions: read-out: inhibitory activity on proliferation
Excerpt: as §1

[4] = tested on: hepatoma cells L-BEL-7402; test: Proliferation of human cancer cell panel; type: cell-based; conditions: read-out: inhibitory activity on proliferation
Excerpt: as §1

[5] = tested on: endometrial cancer cells E-RL95-2; test: Proliferation of human cancer cell panel; type: cell-based; conditions: read-out: inhibitory activity on proliferation
Excerpt: as §1

LG-NCI-H460 = test: Proliferation of human cancer cell panel; type: cell-based; conditions: read-out: inhibitory activity on proliferation
Excerpt: as §1

P-PC-3 = test: Proliferation of human cancer cell panel; type: cell-based; conditions: read-out: inhibitory activity on proliferation
Excerpt: as §1

O-SKOV-3 = test: Proliferation of human cancer cell panel; type: cell-based; conditions: read-out: inhibitory activity on proliferation
Excerpt: as §1

B-BT474 = test: Proliferation of human cancer cell panel; type: cell-based; conditions: read-out: inhibitory activity on proliferation
Excerpt: as §1

[6] = tested on: gastric cancer cells G-MKN-45; test: Proliferation of human cancer cell panel; type: cell-based; conditions: read-out: inhibitory activity on proliferation
Excerpt: as §1

[7] = tested on: rhabdomyosarcoma cells S-RH30; test: Proliferation of human cancer cell panel; type: cell-based; conditions: read-out: inhibitory activity on proliferation
Excerpt: as §1

LG-NCI-H23 = test: Proliferation of human cancer cell panel; type: cell-based; conditions: read-out: inhibitory activity on proliferation
Excerpt: as §1

[8] = tested on: human neuroglioma U87-MG xenograft; test: Growth of U87-MG xenograft subcutaneously transplanted in nude mouse; type: in vivo; conditions: 50 mg/kg p.o. once a day
Procedure: Well-developed tumors in nude mice were cut into 1.5 mm3 fragments and transplanted s.c. into the right flank of nude mice under sterile conditions. The diameters of subcutaneously transplanted tumours in nude mice were measured with a vernier calipe. […] Control groups were given the same amount of blank solvent, and treatment groups received tested compounds (p.o.). Compounds were administrated once a day for three weeks. Throughout the experiment, the sizes of the tumours were measured twice per week and meanwile the body weights of mice were weighed. The tumour volume (TV) was calculated as follows: TV=½×a×b2, wherein a and b represent the length and width, respectively. The individual relative tumour volume (RTV) was calculated as follows: RTV=Vt/V0, where V0 is the volume at the beginning of the treatment and Vt is the volume measured every time. Evaluation index of antitumor activity was relative tumor proliferation rate T/C (%), the calculation formula of which was as follows: T/C (%)=(TRTV/CRTV)×100%, TRTV:RTV of treatment group; CRTV:RTV of negative control group.

CCNC(=O)Nc1cc(C(F)(F)F)c(-c2nc(N3CCOCC3)c3cc(CN4CCN(S(C)(=O)=O)CC4)cn3n2)cn1 [Compound I-30, 1-ethyl-3-(5-(6-((4-(methylsulfonyl)piperazin-1-yl)methyl)-4-morpholinopyrrolo[2,1-f][1,2,4]triazin-2-yl)-4-(trifluoromethyl)pyridin-2-yl)urea]
pIC50 [1]: 6.09 | pIC50 (PI3Kα): 8.09 | pIC50 [2]: 6.31 | pIC50 (B-MCF-7): 5.60 | pIC50 [3]: 5.01 | pIC50 [4]: 5.49 | pIC50 [5]: 5.70 | pIC50 (LG-NCI-H460): 6.18 | pIC50 (P-PC-3): 6.22 | pIC50 (O-SKOV-3): 7.34 | pIC50 (B-BT474): 7.49 | pIC50 [6]: 5.81 | pIC50 [7]: 6.59 | pIC50 (LG-NCI-H23): 6.05

CS(=O)(=O)N1CCN(Cc2cc3nc(-c4cccc5[nH]ncc45)nc(N4CCOCC4)c3s2)CC1 [GDC0941, reference compound]
Relative tumor proliferation rate T/C ([8]; d0): 100.00% | Relative tumor proliferation rate T/C ([8]; d3): 75.12% | Relative tumor proliferation rate T/C ([8]; d7): 79.34% | Relative tumor proliferation rate T/C ([8]; d10): 74.75% | Relative tumor proliferation rate T/C ([8]; d14): 56.86% | Relative tumor proliferation rate T/C ([8]; d17): 53.57% | Relative tumor proliferation rate T/C ([8]; d21): 51.40% | pIC50 [2]: 6.29 | pIC50 (B-MCF-7): 6.28 | pIC50 [3]: 5.09 | pIC50 [4]: 5.49 | pIC50 [5]: 5.66 | pIC50 (LG-NCI-H460): 5.78 | pIC50 (P-PC-3): 6.20 | pIC50 (O-SKOV-3): 6.50 | pIC50 (B-BT474): 6.59 | pIC50 [6]: 5.78 | pIC50 [7]: 6.32 | pIC50 (LG-NCI-H23): 5.92
